Assay results reported in US20240226101A1, “PYRIMIDINYLAMINOBENZENES FOR LUNG CANCER TREATMENT” (Suzhou Puhe BioPharma Co., LTD., priority 2021, published 2024).
Several values for one entry are separate records, joined by “and”; a condition that tells them apart may be missing. Equal entries are not always repeated.

Legend:
[1] = Pharmacokinetics in the xenograft mouse model, single oral dose; assay type: in vivo, Balb/c Mice; settings: 80 mg/kg single oral dose
Description: Using the same xenograft mouse model, the pharmacokinetic (PK) parameters of compound A13 were determined at 80 mg/kg with a single oral dose. For each mouse, blood samples were collected at 0, 1, 2, 4, 8, 16, and 24 h after dosing.

EGFR V769_D770insGE = EGFR V769_D770insGE (Homo sapiens, UniProt P00533, INS769GE); experiment: HTFR KINEASE-TK kit (Cisbio) inhibition of EGFR mutant V769_D770insGE; assay type: biochemical
Description: (§1) Compound A13 was tested against EGFR mutants: (i) three exon 20 insertions: […], D770_N771insNPG, and A763_Y764insFQEA; and (ii) one point mutation: L861Q; using an HTFR KINEASE-TK kit (Cisbio) according to the manufacturer's protocol.

[2] = biological target: T1, EGFR L861Q in Ba/F3 cell lines (Homo sapiens, UniProt P00533, L861Q); experiment: […]-GLO cell viability assay, Ba/F3 cells with EGFR L861Q; assay type: cell-based
T1 construct: expressed in transfected cells; host or cells: Ba/F3

[3] = biological target: T2, EGFR G719S in Ba/F3 cell lines (Homo sapiens, UniProt P00533, G719S); experiment: […]-GLO cell viability assay, Ba/F3 cells with EGFR G719S; assay type: cell-based
T2 construct: expressed in transfected cells; host or cells: Ba/F3

[4] = tested on: LU0387 lung cancer PDX model; experiment: Antitumor activity in subcutaneous LU0387 lung cancer PDX xenograft mouse model; assay type: in vivo; settings: for TV (mm^3) on Day 0: Day 0 (randomization, baseline); for TV (mm^3) on Day 0 / RTV (relative tumor volume) / TV (mm^3) on Day 21: benzoate salt
Description: Compound A13 as a single agent was evaluated for lung cancer treatment in a subcutaneous LU0387 lung cancer PDX model using female Balb/c nude mice. Tumor fragments from stock mice were harvested for inoculation into mice. Each mouse was inoculated subcutaneously in the right rear flank with a PDX model LU0387 tumor fragment (2-3 mm in diameter) for tumor development.
The randomization started when the mean tumor size reached approximately 517.37 mm^3. Twenty-four mice were randomly allocated to 8 study groups, with 3 mice per group. The date of randomization was designated as Day 0.
After tumor inoculation, the mice were checked daily for morbidity and mortality. The mice were checked for any effects of tumor growth and treatments on behavior such as mobility, food and water consumption, body weight gain/loss, eye/hair matting, and any abnormalities. Mortality and observed clinical signs were recorded for each individual mouse in detail.
Tumor volumes (TV) were measured twice per week after randomization using a caliper and the volume was calculated using the formula: V=(L×W×W)/2, where V is tumor volume, L is tumor length (the longest tumor dimension), and W is tumor width (the longest tumor dimension perpendicular to L).
Compound A13 was administered orally as a benzoate salt in a citrate/phosphate buffer at pH 4.0 at 20, 40, and 80 mg/kg once daily for 21 days. The results are summarized in Table 3, where RTV represents relative tumor volume.

[5] = biological target: T3, EGFR H773_V774insNPH in Ba/F3 cell lines (Homo sapiens, UniProt P00533, INS773NPH); experiment: […]-GLO cell viability assay, Ba/F3 cells with EGFR H773_V774insNPH; assay type: cell-based
T3 construct: expressed in transfected cells; host or cells: Ba/F3

[6] = biological target: T4, EGFR V769_D770insASV in Ba/F3 cell lines (Homo sapiens, UniProt P00533, INS769ASV); experiment: […]-GLO cell viability assay, Ba/F3 cells with EGFR V769_D770insASV; assay type: cell-based
T4 construct: expressed in transfected cells; host or cells: Ba/F3

[7] = biological target: T5, EGFR A763_Y764insFQEA in Ba/F3 cell lines (Homo sapiens, UniProt P00533, INS763FQEA); experiment: […]-GLO cell viability assay, Ba/F3 cells with EGFR A763_Y764insFQEA; assay type: cell-based
T5 construct: expressed in transfected cells; host or cells: Ba/F3

EGFR L861Q = EGFR L861Q (Homo sapiens, UniProt P00533, L861Q); experiment: HTFR KINEASE-TK kit (Cisbio) inhibition of EGFR mutant L861Q; assay type: biochemical
Description: as §1

[8] = biological target: T6, EGFR D770_N771insSVD in Ba/F3 cell lines (Homo sapiens, UniProt P00533, INS770SVD); experiment: […]-GLO cell viability assay, Ba/F3 cells with EGFR D770_N771insSVD; assay type: cell-based
T6 construct: expressed in transfected cells; host or cells: Ba/F3

EGFR D770_N771insNPG = EGFR D770_N771insNPG (Homo sapiens, UniProt P00533, INS770NPG); experiment: HTFR KINEASE-TK kit (Cisbio) inhibition of EGFR mutant D770_N771insNPG; assay type: biochemical
Description: as §1

EGFR A763_Y764insFQEA = EGFR A763_Y764insFQEA (Homo sapiens, UniProt P00533, INS763FQEA); experiment: HTFR KINEASE-TK kit (Cisbio) inhibition of EGFR mutant A763_Y764insFQEA; assay type: biochemical
Description: as §1

[9] = 20 mg/kg orally once daily for 21 days
[10] = 40 mg/kg orally once daily for 21 days

Chain of EGFR V769_D770insGE (P00533 with tags, fused parts or gaps INS769GE): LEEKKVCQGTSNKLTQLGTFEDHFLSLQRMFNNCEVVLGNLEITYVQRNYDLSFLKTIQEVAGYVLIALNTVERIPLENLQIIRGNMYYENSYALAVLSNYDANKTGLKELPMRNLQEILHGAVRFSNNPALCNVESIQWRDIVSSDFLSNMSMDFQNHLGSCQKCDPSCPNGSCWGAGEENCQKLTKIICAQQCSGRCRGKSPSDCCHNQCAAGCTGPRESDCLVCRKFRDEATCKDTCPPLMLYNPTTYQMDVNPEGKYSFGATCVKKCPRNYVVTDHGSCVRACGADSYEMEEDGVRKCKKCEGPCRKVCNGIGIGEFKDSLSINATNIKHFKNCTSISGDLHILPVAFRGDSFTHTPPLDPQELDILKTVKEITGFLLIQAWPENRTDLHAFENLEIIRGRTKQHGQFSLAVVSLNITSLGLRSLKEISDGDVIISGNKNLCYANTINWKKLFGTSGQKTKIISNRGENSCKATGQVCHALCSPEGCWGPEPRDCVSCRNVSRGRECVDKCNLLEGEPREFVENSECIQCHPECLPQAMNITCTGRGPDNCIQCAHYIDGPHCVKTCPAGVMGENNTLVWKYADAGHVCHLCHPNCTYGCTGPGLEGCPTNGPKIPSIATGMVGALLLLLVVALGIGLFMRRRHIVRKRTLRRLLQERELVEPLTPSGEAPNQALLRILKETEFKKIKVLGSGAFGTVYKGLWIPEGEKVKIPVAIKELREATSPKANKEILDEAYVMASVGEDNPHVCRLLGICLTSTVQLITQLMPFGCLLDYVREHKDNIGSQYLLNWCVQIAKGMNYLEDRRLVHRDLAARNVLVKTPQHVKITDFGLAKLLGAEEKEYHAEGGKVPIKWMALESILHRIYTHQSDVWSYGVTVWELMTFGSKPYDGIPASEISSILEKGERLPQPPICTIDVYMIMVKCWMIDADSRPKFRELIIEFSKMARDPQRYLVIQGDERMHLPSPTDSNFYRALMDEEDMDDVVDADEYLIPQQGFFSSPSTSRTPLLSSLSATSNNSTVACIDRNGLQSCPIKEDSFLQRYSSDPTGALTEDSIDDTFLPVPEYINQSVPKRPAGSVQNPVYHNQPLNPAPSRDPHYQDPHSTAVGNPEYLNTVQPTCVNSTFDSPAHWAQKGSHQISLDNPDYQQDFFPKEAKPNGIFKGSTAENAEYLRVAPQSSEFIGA
T4 sequence (P00533 with tags, fused parts or gaps INS769ASV): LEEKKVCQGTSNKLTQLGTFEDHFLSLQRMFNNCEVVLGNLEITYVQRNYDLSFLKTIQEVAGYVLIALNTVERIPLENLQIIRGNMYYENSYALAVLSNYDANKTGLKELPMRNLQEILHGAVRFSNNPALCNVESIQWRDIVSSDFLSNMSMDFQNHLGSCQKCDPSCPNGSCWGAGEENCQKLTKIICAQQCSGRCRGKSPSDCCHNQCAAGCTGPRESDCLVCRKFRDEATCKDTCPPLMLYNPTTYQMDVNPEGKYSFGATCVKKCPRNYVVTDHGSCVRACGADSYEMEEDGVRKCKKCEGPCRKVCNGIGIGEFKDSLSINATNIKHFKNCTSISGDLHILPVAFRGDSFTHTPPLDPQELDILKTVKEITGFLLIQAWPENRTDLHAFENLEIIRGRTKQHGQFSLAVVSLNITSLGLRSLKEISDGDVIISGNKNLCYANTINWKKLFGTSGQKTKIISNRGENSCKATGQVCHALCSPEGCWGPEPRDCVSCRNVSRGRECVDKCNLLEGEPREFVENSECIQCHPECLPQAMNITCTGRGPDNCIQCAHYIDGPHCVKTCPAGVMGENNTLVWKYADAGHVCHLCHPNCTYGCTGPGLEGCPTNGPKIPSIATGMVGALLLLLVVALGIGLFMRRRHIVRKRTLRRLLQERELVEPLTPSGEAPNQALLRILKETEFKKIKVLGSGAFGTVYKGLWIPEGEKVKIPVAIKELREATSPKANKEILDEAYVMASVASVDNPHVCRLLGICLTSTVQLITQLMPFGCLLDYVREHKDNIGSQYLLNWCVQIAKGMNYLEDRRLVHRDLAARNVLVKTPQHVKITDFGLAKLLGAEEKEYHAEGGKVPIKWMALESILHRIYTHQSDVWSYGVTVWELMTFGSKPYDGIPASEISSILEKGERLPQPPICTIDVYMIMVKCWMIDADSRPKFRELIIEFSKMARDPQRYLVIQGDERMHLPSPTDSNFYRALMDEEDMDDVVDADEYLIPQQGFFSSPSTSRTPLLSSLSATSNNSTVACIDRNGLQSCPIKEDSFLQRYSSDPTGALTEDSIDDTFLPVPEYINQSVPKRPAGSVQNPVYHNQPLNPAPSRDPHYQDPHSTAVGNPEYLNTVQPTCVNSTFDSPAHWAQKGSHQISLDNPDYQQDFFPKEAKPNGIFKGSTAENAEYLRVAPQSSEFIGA
Chain of EGFR D770_N771insNPG (P00533 with tags, fused parts or gaps INS770NPG): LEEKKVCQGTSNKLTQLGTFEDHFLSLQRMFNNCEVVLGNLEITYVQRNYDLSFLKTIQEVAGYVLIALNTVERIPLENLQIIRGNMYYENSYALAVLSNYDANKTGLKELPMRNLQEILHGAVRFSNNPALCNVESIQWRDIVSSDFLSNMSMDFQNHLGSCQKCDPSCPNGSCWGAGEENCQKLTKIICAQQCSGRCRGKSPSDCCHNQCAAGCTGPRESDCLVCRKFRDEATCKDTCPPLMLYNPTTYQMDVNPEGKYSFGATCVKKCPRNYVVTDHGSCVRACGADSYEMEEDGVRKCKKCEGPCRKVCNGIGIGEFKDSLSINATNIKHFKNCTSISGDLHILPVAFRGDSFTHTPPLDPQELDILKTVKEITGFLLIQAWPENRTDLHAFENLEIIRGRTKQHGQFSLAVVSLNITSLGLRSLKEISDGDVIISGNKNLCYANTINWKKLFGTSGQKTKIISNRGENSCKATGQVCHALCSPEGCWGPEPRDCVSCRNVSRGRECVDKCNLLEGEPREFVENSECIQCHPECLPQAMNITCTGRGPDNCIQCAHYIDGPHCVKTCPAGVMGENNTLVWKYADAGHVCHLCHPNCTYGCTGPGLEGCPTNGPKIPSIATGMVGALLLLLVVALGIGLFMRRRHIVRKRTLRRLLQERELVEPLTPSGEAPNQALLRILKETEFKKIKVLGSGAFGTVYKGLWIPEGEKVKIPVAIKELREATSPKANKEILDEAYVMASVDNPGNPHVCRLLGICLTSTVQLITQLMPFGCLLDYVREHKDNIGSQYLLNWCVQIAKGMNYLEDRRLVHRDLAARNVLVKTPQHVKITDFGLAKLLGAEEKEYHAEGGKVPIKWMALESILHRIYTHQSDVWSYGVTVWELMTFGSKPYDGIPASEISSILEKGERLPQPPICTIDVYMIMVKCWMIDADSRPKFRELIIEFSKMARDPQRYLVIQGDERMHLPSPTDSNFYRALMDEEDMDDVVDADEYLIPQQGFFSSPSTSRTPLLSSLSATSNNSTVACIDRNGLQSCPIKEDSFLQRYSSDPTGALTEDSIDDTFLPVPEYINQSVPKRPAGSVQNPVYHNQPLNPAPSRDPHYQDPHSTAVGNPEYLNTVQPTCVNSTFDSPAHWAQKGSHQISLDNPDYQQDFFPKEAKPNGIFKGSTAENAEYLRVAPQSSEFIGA
T3 sequence (P00533 with tags, fused parts or gaps INS773NPH): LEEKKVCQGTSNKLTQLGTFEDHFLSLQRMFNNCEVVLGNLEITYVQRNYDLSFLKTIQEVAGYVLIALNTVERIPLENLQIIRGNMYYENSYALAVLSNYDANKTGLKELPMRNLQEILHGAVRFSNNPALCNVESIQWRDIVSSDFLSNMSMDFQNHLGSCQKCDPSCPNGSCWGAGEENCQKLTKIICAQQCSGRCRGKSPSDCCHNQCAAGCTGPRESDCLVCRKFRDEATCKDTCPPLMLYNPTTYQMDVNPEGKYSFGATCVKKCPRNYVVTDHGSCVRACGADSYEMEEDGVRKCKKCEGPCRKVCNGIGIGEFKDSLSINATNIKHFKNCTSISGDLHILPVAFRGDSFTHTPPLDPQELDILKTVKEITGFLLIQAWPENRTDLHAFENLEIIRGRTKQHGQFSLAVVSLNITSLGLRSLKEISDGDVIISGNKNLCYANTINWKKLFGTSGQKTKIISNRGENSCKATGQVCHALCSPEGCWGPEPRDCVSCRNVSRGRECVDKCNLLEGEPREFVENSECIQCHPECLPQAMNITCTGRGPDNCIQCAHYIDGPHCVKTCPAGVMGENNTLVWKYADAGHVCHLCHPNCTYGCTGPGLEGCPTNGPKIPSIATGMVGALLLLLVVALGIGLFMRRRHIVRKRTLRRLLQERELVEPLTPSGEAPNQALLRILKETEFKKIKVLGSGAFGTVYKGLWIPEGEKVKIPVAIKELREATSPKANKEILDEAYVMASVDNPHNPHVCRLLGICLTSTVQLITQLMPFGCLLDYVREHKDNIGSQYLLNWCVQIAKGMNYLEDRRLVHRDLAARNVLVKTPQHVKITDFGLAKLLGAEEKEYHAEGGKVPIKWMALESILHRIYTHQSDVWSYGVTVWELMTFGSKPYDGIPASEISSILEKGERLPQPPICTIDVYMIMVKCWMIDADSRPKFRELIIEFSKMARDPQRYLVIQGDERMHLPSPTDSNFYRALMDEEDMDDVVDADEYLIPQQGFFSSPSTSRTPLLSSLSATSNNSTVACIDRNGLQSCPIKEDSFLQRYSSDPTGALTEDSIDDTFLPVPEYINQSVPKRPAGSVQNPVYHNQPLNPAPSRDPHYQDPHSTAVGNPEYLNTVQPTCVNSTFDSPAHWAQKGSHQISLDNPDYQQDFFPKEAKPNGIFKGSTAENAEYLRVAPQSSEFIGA

## C=CC(=O)Nc1cc(Nc2nccc(-c3cnc4c(C)cccn34)n2)c(OC)cc1N(C)CCN(C)C [A13, N-(2-((2-(dimethylamino)ethyl)(methyl)amino)-4-methoxy-5-((4-(8-methylimidazo[1,2-a]-pyridin-3-yl)pyrimidin-2-yl)amino)phenyl)acrylamide]
[1]
  CLz: 353 ± 30 mL/min/kg
  Vz: 52 ± 17 L/kg
[1]; Balb/c, mouse, blood
  Cmax: 1380 ± 432 ng/mL
  half-life: 1.7 ± 0.6 h
[1]; Balb/c, mouse, blood, 0-24 h
  AUC(0-t): 3600 ± 273 ng·h/mL
EGFR V769_D770insGE
  IC50: 0.62 nM
[2]
  IC50: 5 nM
[3]
  IC50: 2 nM
[4]; 20 mg/kg group
  TV (mm^3) on Day 0: 86 ± 6 mm^3
[4]; [9]
  RTV (relative tumor volume): 517 ± 61
  TV (mm^3) on Day 21: 602 ± 67 mm^3
[4]; 40 mg/kg group
  TV (mm^3) on Day 0: 89 ± 6 mm^3
[4]; [10]
  RTV (relative tumor volume): 281
  TV (mm^3) on Day 21: 370 ± 31 mm^3
[4]; 40 mg/kg orally once daily for 21 days, vs. vehicle control (P=0.016)
  TGI (tumor growth inhibition): 61%
[4]; 80 mg/kg group
  TV (mm^3) on Day 0: 86 mm^3 and 86 ± 6 mm^3
[4]; 80 mg/kg orally once daily for 21 days
  TV (mm^3) on Day 21: 36 mm^3 and 36 ± 9 mm^3
[4]; 80 mg/kg orally once daily for 21 days, vs. vehicle control (P<0.001)
  TGI (tumor growth inhibition): 107%
[4]; 20, 40, and 80 mg/kg orally once daily for 21 days in tumor-bearing mice
  Tolerability: well tolerated
[5]
  IC50: 62 nM
[6]
  IC50: 73 nM
[7]
  IC50: 4 nM
EGFR L861Q
  IC50: 0.36 nM
[8]
  IC50: 29 nM
EGFR D770_N771insNPG
  IC50: 0.42 nM
EGFR A763_Y764insFQEA
  IC50: 0.73 nM
